Biological target: T1, Endothiapepsin (Cryphonectria parasitica, UniProt P11838)
T1 sequence (P11838 whole entry): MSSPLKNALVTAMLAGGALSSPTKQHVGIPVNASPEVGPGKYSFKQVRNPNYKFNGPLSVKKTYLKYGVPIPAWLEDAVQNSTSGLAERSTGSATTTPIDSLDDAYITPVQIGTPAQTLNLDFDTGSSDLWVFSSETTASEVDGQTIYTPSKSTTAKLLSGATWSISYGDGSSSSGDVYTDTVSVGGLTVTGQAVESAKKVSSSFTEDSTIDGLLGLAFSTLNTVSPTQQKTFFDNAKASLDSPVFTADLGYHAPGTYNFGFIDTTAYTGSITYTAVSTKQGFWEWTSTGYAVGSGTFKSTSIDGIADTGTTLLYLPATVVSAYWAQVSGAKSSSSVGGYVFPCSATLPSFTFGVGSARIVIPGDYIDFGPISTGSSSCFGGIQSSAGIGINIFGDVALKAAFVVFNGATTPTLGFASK
Test: Inhibition of Cryphonectria parasitica endothiapepsin using 2-aminobenzoyl-Thr-Ile-Nle-Phe(p-NO2)-Gln-Arg-NH2 as substrate assessed as hydrolysis of substrate into 2-aminobenzoyl-Thr-Ile-Nle and Phe(p-NO2)-GLn-Arg-NH2 by fluorescence-based spectrophotometric analysis

Row | IC50 | Compound
1 | 85 µM | N[C@H](C(=O)N/N=C/C1CCCC1)c1ccc(C(F)(F)F)cc1 (mixture of isomers)
2 | 210 µM | N[C@H](C(=O)N/N=C/c1ccccc1)c1ccc(C(F)(F)F)cc1 (mixture of isomers)
